System: Phytophthora infestans, strain resistant to phenylalanine
Conditions: listed phosphite salt(s) alone at 750 ppm equivalent phosphorous acid, potato plants, scale 100 to 0

O=[PH]([O-])[O-].[Cu+2] [CuHPO3, copper (II) salt of phosphorous acid]
Activity (y): 12

Source: US20090081174A1 (priority 2005, published 2009)
